In patent EP4389739A1, “MOLECULE HAVING PESTICIDAL UTILITY AND PROCESSES RELATED THERETO” (Corteva Agriscience LLC, priority 2022, dated 2024):

How the values were obtained:
Assay type in all cases: in vivo
[1] = tested on: root knot nematode (RKN), Meloidogyne incognita; assay: Root Knot Nematode (RKN) test on cucumber seedlings in greenhouse, Galling Index converted to % control, EC by probit analysis; settings: based on % control from Galling Index, cucumber, 4,000 J2s, 14 days in Greenhouse, about 27 °C
Description: The following Root Knot Nematode (RKN) test was conducted to compare the activities of S1, R1, and B1.
We conducted an experiment to evaluate comparative bioactivity of S1, R1, and B1 against the root knot nematode (RKN), Meloidogyne incognita. Each of S1, R1, and B1 were tested at […]: 125, 62.5, 31.25, 15.6, 7.8, 3.9, and 2 ppm. Cucumber seeds (Cucumis sativus) were planted in a sandy loam soil in 3-inch pots. After 6 days of germination, the seedlings were treated with the test compounds dissolved in 5% acetone in water. The treated plants were inoculated with 4,000 second stage juveniles (J2s) of M. incognita. Each experimental unit was replicated three times. The inoculated plants were kept in a Greenhouse for 14 days (about 27 °C) before evaluating the amount of root damage (galls) called Galling Index (GI) based on a scale of 0 - 10; where 0 = no galls (100% control), and 10 = maximum galls (no control). The GI was converted to % control using the formula (10 - GI) x 10; where GI = Gall Index. Effective concentration (EC) values based on the % control of the nematode by S1, R1 and B1 were calculated by probit analysis.

[2] = tested on: soybean cyst nematode (SCN): Heterodera glycines second stage juveniles (J2); assay: Soybean Cyst Nematode (SCN) in-vitro mortality test; settings: mortality after 48 hours of incubation, about 25 °C, 0.5% DMSO in water; probit analysis
Description: The following Soybean Cyst Nematode (SCN) test was conducted to compare the activities of S1, R1, and B1.
We carried out an in-vitro experiment to compare activity of S1, R1, and B1 with each other against the soybean cyst nematode (SCN): Heterodera glycines second stage juveniles (J2). Each of S1, R1, and B1 were tested at six rates: 62.5, 15.6, 4, 1, 0.25, and 0 ppm (untreated control, UTC) with three replications of each treatment. Equal volume of nematode suspension was added to an equal volume of compound dissolved in 0.5% DMSO (dimethyl sulfoxide) in water. The nematode plus compound was incubated at room temperature (about 25 °C) on a shaker at 95 revolutions per minutes (RPM). Aliquots of 0.5 milliliters (mL) of the nematode suspension were evaluated under a microscope for mortality after 48 hours of incubation. SCN J2s were counted, and the number of dead and active nematodes was used to calculate % SCN mortality which was used to generate lethal concentration (LC) values by probit analysis.

[3] = tested on: root lesion nematode (RLN), Pratylechus penetrans; assay: Root Lesion Nematode (RLN) in-vitro mortality test; settings: mortality after 48 hours, about 25 °C, 0.5% DMSO in water
Description: The following Root Lesion Nematode (RLN) test was conducted to compare the activities of S1, R1, and B1.
We carried out an in-vitro experiment to compare activity of S1, R1, and B1 with each other against the root lesion nematode (RLN), Pratylechus penetrans. Each of S1, R1, and B1 were tested at six rates: 62.5, 15.6, 4, 1, 0.25, and 0 ppm (UTC) with three replications of each treatment. Equal volume of nematode suspension was added to an equal volume of each of S1, R1, and B1 dissolved in 0.5% DMSO (dimethyl sulfoxide) in water in 25 mL vials. The treated nematode suspension was incubated at room temperature (about 25 °C) on a shaker (95 RPM). Aliquots of 1 mL of the nematode suspension was evaluated under a microscope for mortality after 48 hours. RLN were counted, and the number of dead and active nematodes was used to calculate % mortality from which lethal concentration (LC) values were generated.

[4] = tested on: root knot nematode, Meloidogyne incognita; assay: Root knot nematode comparative bioactivity test at a single rate, drench application on cucumber seedlings; settings: 600 g ai/ha, 14 days after inoculation, (10 - GI) x 10, three replicates
Description: We carried out an experiment to evaluate comparative bioactivity of S 1, C1, C2, C3, C4, and C5 against the root knot nematode, Meloidogyne incognita. Each compound was tested at 600 grams of active ingredient per hectare (g ai/ha) and was replicated three times. Cucumber seeds (Cucumis sativus) were planted in a sandy loam soil in 3-inch pots. After six (6) days of planting, the seedlings were treated with the test compounds dissolved in 5% acetone in water by drench application. The plants were inoculated with 4,000 second stage juveniles (J2s) of M. incognita. The inoculated plants were kept in a Greenhouse for 14 days (temperature 27 °C) before evaluating the amount of root damage (galls) called Galling Index (GI) based on a scale of 0 - 10; where 0 = no galls (100% nematode control), and 10 = maximum galls (no nematode control). The GI was converted to % nematode control using the formula ((10 - GI) x 10); where GI = Gall Index. The data were analyzed by Analysis of Variance using JMP (John's Macintosh Project) statistical software and the means were separated using Tukey's HSD (α = 0.05).

M. incognita = assay: Residuality test in soil: treated soil aged four weeks, then cucumber seedlings transplanted and inoculated; settings: 1250 g ai/ha applied to bare sandy loam soil, four weeks before transplanting and inoculation; 14 days; four replicates
Description: The molecules in Example Two were compared in a residuality test.
A residuality test was conducted to compare the residual control or persistence of S 1, R1, C1, C2, C3, C4, and C5 in soil. Each compound was applied to a bare sandy loam soil (without plant or nematode) in a 3-inch pot at 1250 g ai/ha. The treated soils were kept in a Greenhouse (temperature 27 °C) under regular irrigation for four weeks. At the end of the four weeks, six-day old cucumber (Cucumis sativus) seedlings were transplanted into the treated soil and inoculated with 4,000 second stage juveniles of M. incognita. Each treatment was replicated four times. The inoculated plants were kept in a Greenhouse for 14 days (temperature 27 °C) before evaluating the amount of root damage (galls) called Galling Index (GI) based on a scale of 0 - 10; where 0 = no galls (100% nematode control), and 10 = maximum galls (no nematode control). The GI were converted to % control using the formula ((10 - GI) x 10); where GI = Gall Index. The data were analyzed by Analysis of Variance using JMP (John's Macintosh Project) statistical software and the means were separated using Tukey's HSD (α = 0.05).

With `CCC(CC)C(C)NC(=O)c1ccoc1Cl` (racemic) [Molecule B1, 2-chloro-N-(3-ethylpentan-2-yl)furan-3-carboxamide] the “EC50 (ppm)” value [1] was 16.84 ppm, the “LC50 (ppm)” value [2] was 23.28 ppm and the “LC50 (ppm)” value [3] was 24.72 ppm.

For `CC(C)C[C@H](C)NC(=O)c1ccoc1Cl` [Molecule C2], the “Mean Percent Control” value [4] was 54% and the “Mean Percent Control” value (M. incognita) was 25.0%.

In the case of `CC(C)[C@H](C)NC(=O)c1ccoc1Cl` [Molecule C3], the “Mean Percent Control” value [4] is reported as 67% and the “Mean Percent Control” value (M. incognita) is reported as 22.5%.

For `C[C@H](NC(=O)c1ccoc1Cl)C1CCCCC1` [Molecule C4], the “Mean Percent Control” value [4] was 25% and the “Mean Percent Control” value (M. incognita) was 2.5%.

For `C[C@H](NC(=O)c1ccoc1Cl)C1CCCC1` [Molecule C5], the “Mean Percent Control” value [4] was 50% and the “Mean Percent Control” value (M. incognita) was 22.5%.

`CCC(CC)[C@@H](C)NC(=O)c1ccoc1Cl` [Molecule R1, (R)-2-chloro-N-(3-ethylpentan-2-yl)furan-3-carboxamide] was tested, and the “EC50 (ppm)” value [1] was greater than 125 ppm, the “LC50 (ppm)” value [2] was greater than 62.5 ppm and the “LC50 (ppm)” value [3] was greater than 62.5 ppm. For the same molecule, the “Mean Percent Control” value (M. incognita) was 7.5%.

`CCC(CC)[C@H](C)NC(=O)c1ccoc1Cl` [Molecule S1, (S)-2-chloro-N-(3-ethylpentan-2-yl)furan-3-carboxamide] was tested, and the “EC50 (ppm)” value [1] was 4.95 ppm, the “LC50 (ppm)” value [2] was 1.799 ppm and the “LC50 (ppm)” value [3] was 6.89 ppm. For the same molecule, the “Mean Percent Control” value [4] was 84% and the “Mean Percent Control” value (M. incognita) was 77.5%.
